64 molecules from a melting point compilation (Tetko et al.; mined from patent text by program, amines drawn as free bases though some values may be those of a salt) can be followed below.

In the case of `CCOC(=O)CON1C(=O)C(=O)N(c2cc(Cl)ccc2C)C1=S`, the melting point (usually the temperature, or range, at which the solid turns liquid) was in the range of 157 to 159 °C.
To `CC(C)COCCOc1ccc(OCC(O)CNCCNC(=O)N(C)C)cc1` (centres undefined) belongs 75 °C.
For `Oc1c(CCl)cc(F)cc1CCl`, the melting point was 70 °C.
For `COC(=O)C1=C(C)NC(C)=C(c2nnco2)C1c1cccc(Cl)c1Cl` (centres undefined), the melting point was 225 to 229 °C.
As for `CC(N1CCC(Cc2ccccc2)CC1)C(O)(NC(=O)c1ccccc1)c1ccc(N)cc1` (centres undefined), the melting point lay within 126 to 129 °C.
`N#Cc1ccc2nc3c(c(=O)n2c1)CSC3`: the melting point is 256 to 257 °C.
As for `COc1cc(C(=O)CCCc2ccccc2)ccc1OCc1ccccc1`, the figure is 81 to 82 °C.
As for `COc1ccc(-c2c3c(cc4ccc5c(c24)OCO5)C(=O)OC3)cc1OC`, the figure is 221 to 223 °C; as for `CC[C@@](O)(CC(=O)N1C(=O)O[C@@H](c2ccccc2)[C@H]1c1ccccc1)c1ccnc(OC)c1COCc1ccccc1`, 61 °C.
To `CCCNC(=O)C(C)(C)Cc1ccc2c(c1)c(Cc1ccc(C(=O)NS(=O)(=O)c3ccccc3C)cc1OC)cn2CCC` belongs 102 to 112 °C; to `COC(=O)CCCCc1ccc(CCNC(C)=O)cc1`, 57 to 59 °C.
With `COC1OC(CO)C(O)C(OC(C)=O)C1Cl` (centres undefined), the melting point was in the range of 105 to 106 °C.
To `CC1(C)CC(=O)c2cc(OCc3ccccc3)ccc2O1` belongs 105 to 107 °C; to `O=c1[nH]c2ccccc2cc1-c1csc(-c2cccnc2)n1`, 197 to 198 °C.
To `Cc1cc(O)nc(SCC(CS(=O)(=O)c2ccc(-c3ccc(Cl)cc3)cc2)C(=O)O)n1` (centres undefined) belongs 165 to 168 °C; to `COC(=O)Nc1cn2cccc(Sc3ccccc3)c2n1`, 169 to 171 °C; to `CC(C)(C)OC(=O)C(Br)c1ccc(Cl)c(Cl)c1` (racemic), 88 °C.
The molecule `CC1(C)C(=O)N(c2ccnc(N)c2)c2cccnc21` had a melting point of 210 to 211 °C.
Turning to `CS(=O)(=O)Nc1c(O)ccc2c1CCCC2C1=NCCN1` (centres undefined), the melting point was in the range of 263 to 265 °C.
To `Cc1cc(Br)cnc1CCCCNc1ncc(Cc2ccc(F)cc2)c(=O)[nH]1` belongs 172 to 173 °C.
The molecule `CCOC(Cc1ccc(OCCN2c3ccccc3Oc3ccccc32)cc1)C(=O)O` (centres undefined) yielded a melting point of 86 to 102 °C.
To `N#CCCNC(=O)c1cccc(-c2ccnc3cc(Cc4cccc(C(F)(F)F)c4)oc23)c1` belongs 164 to 165 °C; to `COC(=O)NC(=O)NS(=O)(=O)c1ccc([N+](=O)[O-])cc1`, 150 to 158 °C; to `N#Cc1cccc(-c2ccc(OC[C@@H](O)CCc3cccnc3)cc2)c1`, 74 to 75 °C.
Take `CCC1Cc2cc(OC)ccc2C2CCC3(C)C(=O)CC(C)C3C12` (centres undefined): the melting point was in the range of 120 to 122 °C.
`Cc1ccc(-n2nc(C(F)F)cc2-c2ccc(S(C)(=O)=O)cc2)cc1F` had a melting point of 161 to 162 °C.
To `O=c1nc(-c2c[nH]c3ccccc23)sc2ccccc12` belongs 276 to 277 °C.
To `C#CC(CCCCC)OC(c1ccccc1)(c1ccccc1)c1ccccc1` (centres undefined) belongs 65 to 66.5 °C; to `O=C(O)CC(Cc1c[nH]c2ccccc12)(C(=O)O)C(=O)O`, 184 to 185 °C; to `Cc1cccc(C)c1NC(=O)c1ccc(O)cc1`, 232 to 234 °C.
To `CC/C=C(\c1ccccc1N1CCCCC1)C(C(N)=O)c1ccc(C(=O)O)cc1` (centres undefined) belongs 174 to 175 °C; to `c1ccc(-c2nn3c(N4CCCC4)nnc3c3ccccc23)cc1`, 245 to 247 °C; to `Cn1c(C(F)(F)F)ccc(-c2cc(S(C)(=O)=O)c(Cl)cc2F)c1=O`, 144 to 145 °C.
In turn, `COc1ccc2c(c1)CCC(=CO)C2=O` showed a melting point of 66 to 68 °C.
As for `CC1(c2cc(Cl)nnc2Cl)CC1(Cl)Cl` (centres undefined), the figure is 78 to 79 °C.
For `COc1cc(OC)c2c(=O)[nH]c(-c3ccccn3)nc2c1`, the melting point was 215 to 217 °C.
`CCCc1c[nH]nc1OCCCc1cn(-c2ccc(C(F)(F)F)cn2)nc1CCC` registered a melting point of 127 to 128 °C.
The molecule `CCCc1c(C(=O)N(C)Cc2ccc3c(Br)c(O)ccc3c2)cnn1-c1ccccc1` displayed a melting point of 205 to 207 °C.
To `Cc1c(-c2ccccc2)oc2c(C#N)cccc12` belongs 86 to 87 °C; to `O=C1N(Cc2ccccc2)Cc2cccnc2N1c1cccc([N+](=O)[O-])c1`, 144 to 145 °C.
As for `NC1=NC(c2ccc(OC(F)F)cc2)(c2cccc(-c3cccnc3F)c2)C2=NCC3(CCC3)CN12` (centres undefined), the figure is 220 to 226 °C.
As for `COC(=O)NCCCCn1c(=O)c2c(C)nc3cccc1n32`, the figure is 175 to 176 °C.
`NC1CCn2c(CCc3ccccc3)nc3cccc1c32` (centres undefined) came in with a melting point of 43.6 to 45.6 °C.
To `CCN(C(=O)c1ccccc1C(=O)c1ccc(F)cc1)C(C)(C)CNS(=O)(=O)c1ccc(C)cc1` belongs 154 to 156 °C; to `O=C(Nc1ccc(C(=O)N2CCCc3cc(F)ccc32)cc1)c1cc(Cl)cc(Cl)c1`, 206 °C; to `CN1CCN2c3ncc(Br)cc3Cc3ccccc3C2C1` (centres undefined), 126 to 128 °C.
`CN(C)Cc1nnc2n1-c1ccc(Cl)cc1C(c1ccc(Cl)cc1)=[N+]([O-])C2`: the melting point was determined as 260 °C.
Take `O=[N+]([O-])c1ccc(N2Cc3ccccc3P2(=O)c2ccccc2)cc1` (centres undefined): the melting point is 255 to 257 °C.
As for `CCOC(=O)CNS(=O)(=O)C(F)(F)F`, the figure is 73 to 75 °C.
To `CON1C(C)(C)CC(OC(=O)c2ccccc2)CC1(C)C` belongs 67 to 68 °C.
As for `CCOC(=O)C(=CNc1cccnc1OC)C(=O)OCC`, the melting point is 65 °C.
As for `O=C(Cc1cn(-c2ccccc2)nc1-c1ccc(Cl)cc1)NO`, the figure is 168 to 169 °C; as for `O=C(O)CSCCCCOc1ccccc1`, 48 to 50 °C.
As for `Cc1ccc(-c2ccc3c(c2)C=C(C(=O)Nc2ccc(CN(C)C4CCOCC4)cc2)CCO3)s1`, the figure is 129 to 130 °C; as for `Nc1cc(-c2noc(-c3cnn4c(C(F)(F)F)cc(-c5ccc(Cl)c(Cl)c5)nc34)n2)ccn1`, 262 °C; as for `Cc1c(Cl)ccc2c1N=C(c1ccncc1)OC2c1ccc(Br)cc1` (centres undefined), 169 to 170 °C.
`COc1ccc(-c2nc(CC(N)=O)sc2-c2ccc(OC)cc2)cc1` returned a melting point of 124 to 127 °C.
`CCN(CC)C(=O)c1ccoc1-c1ccc(C=O)cc1` registered a melting point of 64 to 66 °C.
`Cn1ncc2c(=O)n3c(nc21)SC(c1ccccc1)C3` (centres undefined) yielded a melting point of 191 °C.
To `O=C1c2ccccc2C(O)(c2ccccc2)N1CCc1ccccc1F` (centres undefined) belongs 208 °C; to `CCC(Cn1cncn1)(C(N)=O)c1ccc(Cl)cc1` (centres undefined), 139 to 140 °C; to `C=CCN(CC=C)c1nc(NC(=O)OCC)n2oc(=O)nc2n1`, 172 to 174 °C.
For `CCOC(=O)NC(=S)N1CC1C#N` (centres undefined), the melting point was in the range of 152 to 155 °C.
Regarding `Cc1nnc(-c2ccc3scc(-c4ccc(S(C)(=O)=O)cc4)c3c2)o1`, the melting point fell in the range of 231 to 232 °C.
